Measurements as given in the supplement of paper PMC10307832.

Experiments:
Test in all cases: relative viability (nuclei count vs DMSO), 5 days (fraction); higher = more cells survive
[1] = compound: NCC(=O)Nc1ccc(-n2nc(C(F)(F)F)cc2-c2ccc3c(ccc4ccccc43)c2)cc1 + O=C(CCCCCCC(=O)Nc1ccccc1)NO [Vorinostat] (partner 1 µM)
In short: (§1)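 For relative viability, nuclei counts in treated wells were divided by those in vehicle wells. Lung cancer cell lines had been pin-tool dosed in 1536-well plates the day after seeding and cultured for 5 days, then fixed and stained in one step (final 0.05% Triton X-100, 1% formaldehyde, 1 ug/ml Hoechst) and imaged at 4×. Doses were one drug alone or a fixed anchor-drug dose plus five library-drug doses (not always all listed) in √10 steps, and values are duplicate-plate medians.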

[2] = compound: C1CSC2=C(C(=O)N1)SC3=C2C=C(C=C3)O [kb NB 142-70] + CC(=O)c1c(C)c2cnc(Nc3ccc(N4CCNCC4)cn3)nc2n(C2CCCC2)c1=O [Palbociclib] (partner 0.5 µM)
In short: as §1

[3] = compound: NCC(=O)Nc1ccc(-n2nc(C(F)(F)F)cc2-c2ccc3c(ccc4ccccc43)c2)cc1 + CC(C)C[C@H](NC(=O)[C@H](Cc1ccccc1)NC(=O)c1cnccn1)B(O)O [Bortezomib] (partner 0.002 µM)
In short: as §1

[4] = compound: C1CSC2=C(C(=O)N1)SC3=C2C=C(C=C3)O [kb NB 142-70] + C[C@@H](Oc1cc(-c2cnn(C3CCNCC3)c2)cnc1N)c1c(Cl)ccc(F)c1Cl [Crizotinib] (partner 1 µM)
In short: as §1

Cell Line	relative viability ([1]; first compound 0.02 µM)	relative viability ([1]; first compound 0.06325 µM)	relative viability ([1]; first compound 0.2 µM)	relative viability ([1]; first compound 0.6325 µM)	relative viability ([1]; first compound 2 µM)	relative viability ([2]; first compound 0.1 µM)	relative viability ([2]; first compound 1 µM)	relative viability ([2]; first compound 3.162 µM)	relative viability ([3]; first compound 0.02 µM)	relative viability ([3]; first compound 0.06325 µM)	relative viability ([3]; first compound 0.2 µM)	relative viability ([3]; first compound 0.6325 µM)	relative viability ([3]; first compound 2 µM)	relative viability ([4]; first compound 0.1 µM)	relative viability ([4]; first compound 1 µM)	relative viability ([4]; first compound 3.162 µM)
NCI-H2023	0.619	0.854	0.58	0.653	0.621	0.389	0.379	0.257	0.993	1.13	0.724	0.932	0.904	0.699	0.761	0.551
NCI-H2085	0.703	0.824	0.728	0.877	0.849	0.466	0.452	0.367	1.09	1.05	1.03	1	1.07	0.754	0.814	0.663
NCI-H2087	0.752	0.618	0.809	0.649	0.668	0.282	0.252	0.215	0.818	0.743	0.621	0.649	0.896	0.562	0.903	0.868
NCI-H2126	0.78	0.858	0.768	0.756	0.773	0.364	0.373	0.345	1.12	1.15	1.15	1.13	1.14	1.04	1.06	0.983
NCI-H2228	0.727	0.599	0.685	0.723	0.663	0.819	0.719	0.446	0.749	0.935	1.01	1.38	0.914	0.519	0.561	0.27
NCI-H2347	0.604	0.688	0.685	0.611	0.673	0.438	0.439	0.488	0.956	1.18	1.02	1.12	0.945	0.685	0.707	0.594
NCI-H2405	1.08	1.11	1.1	1.01	1.16	0.552	0.563	0.499	0.924	1.04	0.999	0.961	0.987	0.796	0.885	0.717
NCI-H3122	1.03	0.997	0.995	0.942	0.797	0.181	0.199	0.187	1.02	1.02	0.984	1	1.05	0.268	0.242	0.192
PC-3 [JPC-3]	0.902	0.854	0.778	1.03	0.822	0.516	0.54	0.534	0.763	0.853	0.8	0.816	0.929	0.985	1.05	0.916
PC-14	0.685	0.62	–	0.659	0.657	0.557	0.636	0.496	0.966	0.822	1.06	0.895	0.858	0.933	0.909	0.92
RERF-LC-KJ	0.59	0.652	0.609	0.758	0.772	1.1	1.18	0.983	1.11	1.19	1.15	1.26	1.14	0.819	0.93	0.924
SK-LU-1	0.804	0.798	0.91	0.71	0.821	0.404	0.412	0.359	1.07	1.22	1.23	1.07	1.31	0.861	0.691	0.45
SW 1573	0.647	0.749	0.831	0.703	0.661	0.418	0.376	0.208	1.16	1.28	1.05	0.894	1.02	0.832	0.815	0.526
